Among the test systems are CAKI-1; CCRF-CEM; HL-60; HOP-62; HOP-92; HT-29; M14; MDA-N; Malme-3M; NCI-H460; OVCAR-3; OVCAR-5; OVCAR-8; SF-268; SF-295; SK-MEL-5; SN12C; SR; TK-10; U-251.
Common to all, as to test: DTP human tumour cell line panel, 48 h

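Cultured in 96-well plates, cells were exposed to test compound for 48 hours across five concentrations. GI50: concentration for 50% inhibition of growth.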 Activity calls are given as the source filed them. No stated cut-off is given here; in the data, active = GI50 up to about 1.1 µM and inactive = higher. Bounds are passed on as bounds.

Regarding `O=C(NC(N1CCN(c2cc3c(cc2F)c(=O)c(C(=O)O)cn3C2CC2)CC1)(C(F)(F)F)C(F)(F)F)c1ccccc1`, the GI50 in the test on CAKI-1 was 22.9 µM (inactive); in the test on CCRF-CEM, 24.7 µM (inactive); in the test with HL-60, 25.4 µM (inactive); in the test with HOP-62, 38.5 µM (inactive); with HOP-92, 33.8 µM (inactive); in the test on HT-29, 24.1 µM (inactive). Besides, the GI50 was 47.4 µM (inactive) in the test on M14; 39.6 µM (inactive) in the test on MDA-N; 36.6 µM (inactive) with Malme-3M; 32.1 µM (inactive) in the test on NCI-H460; 43.5 µM (inactive) in the test with OVCAR-3; 26.7 µM (inactive) with OVCAR-5. For the same compound, the GI50 is 46 µM (inactive) in the test with OVCAR-8; 40.9 µM (inactive) with SF-268; 40.6 µM (inactive) in the test on SF-295; 26 µM (inactive) with SK-MEL-5; 36.1 µM (inactive) in the test on SN12C; 29.8 µM (inactive) with SR. In addition, the GI50 was 27.4 µM (inactive) in the test on TK-10 and 37.3 µM (inactive) in the test on U-251.

For the compound `CN(C)CCn1c(=O)c2ccc3c4c(nn3CCN(C)C)c3cc(N)ccc3n(c1=O)c24`, the GI50 is 0.0741 µM (active) with CAKI-1; < 0.0126 µM (active) in the test on CCRF-CEM; 0.0279 µM (active) in the test with HL-60; < 0.01 µM (active) with HOP-62; 0.191 µM (active) in the test with HOP-92; < 0.01 µM (active) in the test on HT-29. In addition, the GI50 is 0.0259 µM (active) in the test on M14; < 0.0239 µM (active) in the test on MDA-N; 0.0667 µM (active) in the test on Malme-3M; < 0.01 µM (active) in the test on NCI-H460; < 0.0151 µM (active) with OVCAR-3; < 0.027 µM (active) with OVCAR-5. In addition, the GI50 is 0.0238 µM (active) in the test with OVCAR-8; < 0.01 µM (active) with SF-268; 0.0145 µM (active) in the test with SF-295; 0.0516 µM (active) in the test on SK-MEL-5; < 0.0199 µM (active) in the test on SN12C; < 0.0103 µM (active) with SR. Further, the GI50 is 0.0513 µM (active) with TK-10 and < 0.0111 µM (active) in the test with U-251.

Take `N#Cc1c(O)c(/C=N/c2ccc(Cl)cc2)c(=O)n2c1[nH]c1ccccc12`: the GI50 in the test with CAKI-1, in the test on CCRF-CEM, in the test on HL-60, in the test on HOP-62, with HOP-92 and in the test on HT-29 was > 100 µM (inactive) throughout. The GI50 in the test with M14, in the test on MDA-N, in the test with Malme-3M, in the test with NCI-H460, in the test with OVCAR-3 and with OVCAR-5 was > 100 µM (inactive) throughout. Besides, the GI50 with OVCAR-8, with SF-268, in the test with SF-295, in the test on SK-MEL-5, in the test with SN12C and in the test on SR was > 100 µM (inactive) in each case. Moreover, the GI50 in the test with TK-10 and in the test on U-251 was > 100 µM (inactive) throughout.

Take `Oc1nc2cc(Cl)ccc2nc1/C(=N\Nc1ccccc1)C(O)c1ccc2c(c1)OCO2` (stereo not given): the GI50 in the test with CAKI-1, in the test on CCRF-CEM, in the test on HL-60, in the test with HOP-62, with HOP-92 and in the test with HT-29 was > 100 µM (inactive) throughout. For the same compound, the GI50 in the test on M14, in the test with MDA-N, in the test with Malme-3M, with NCI-H460, in the test on OVCAR-3 and in the test with OVCAR-5 was > 100 µM (inactive) in each case. The GI50 in the test on OVCAR-8, with SF-268, in the test on SF-295, in the test with SK-MEL-5, in the test on SN12C and with SR was > 100 µM (inactive) in each case. The GI50 with TK-10 and in the test with U-251 was > 100 µM (inactive) in each case.

A word on the GI50: it is the concentration that inhibits growth by half.

The values above are taken from ChEMBL document CHEMBL1201862, “PubChem BioAssay data set” (2004).
